Measurements from patent publication US6916921B2, “Steroid compounds, use of these compounds for the preparation of meiosis-regulating medicaments and method for the preparation of these compounds” (Schering AG, priority 2001, dated 2005).

Tests used:
[1] = system: mouse preantral follicles; assay: Mouse follicular culture system: activation of oocyte maturation; format: cell-based; details: for Activation [%] GVB / Follicles [n] GV / Follicles [n] GVB: added day 2 and 3, read at day 4
Description: Testing of Meiosis-Activating Substances in the Mouse Follicular Culture System
Follicles were obtained from 19-21 day-old immature female mice (C57BI/6J×CBA/J), that were kept under controlled lighting and temperature.
Collection of Serum and Culture of Follicles
Animals were anesthetized with ether, and blood was collected by means of eye extraction. After clotting, blood was centrifuged for 15 min at 4000×g, and serum was collected and stored at −20° C. until use. Ovaries were removed and placed in Leibovitz L-15 medium (Gibco Cat. No. 41300) supplemented with 1 mmol glutamine l^−1, 3 mg BSA ml^−1, 5 μg human transferrin ml^−1 (without iron), 5 μg insulin ml^−1 (culture-grade chemicals, Sigma, St. Louis, Mo.) at 37 °C.
Preantral follicles with a diameter of 170-190 μm were isolated mechanically with two 27-gauge needles attached to 1 ml syringe. They were placed and washed thereafter (3 times) in 4-well culture plates (Nunclon, Denmark) in α-minimum essential medium (α-MEM; Gibco Cat. No. 11900) supplemented with 2 mmol glutamine l^−1, 10 μg transferrin ml^−1 and 10 μg insulin ml and with 3 mg BSA ml^−1.
Follicles of 170-190 μm with normal morphological appearence, i.e. a central spherical oocyte, high density of granulosa cells, and a theca layer enclosing the entire follicle, were selected and individually cultured in 96-well culture plate (Nunclon, Denmark) inserts with 40 μl α-MEM culture medium supplemented with 50 μl immature mouse serum ml^−1, 5 μg insulin ml^−1, 2 mmol glutamine l^−1, 10 μg human transferrin ml^−1 and 0.2 IU FSH (Gonal F, Serono, Solna, Sweden). Without any oil cover follicles were cultured in a humidified incubator gassed with 5% CO2 in air at 37° C.
Start of culture was defined as day 0. Culture medium was exchanged every other day. The diameter of the follicles was measured each day using ×100 magnification and a calibrated micrometer. In addition, the survival rate of the follicles was checked by evaluation of degeneration (darkening of the follicle) and bursting (loss of the oocyte). The culture time was 4 days.
At day 2 and day 3 of culture test compound or vehicle at a volume of 1.72 μl was added to the culture medium. Test compounds were dissolved in ethanol (vehicle).
(§1) Oocytes arrested in meiosis are characterized by an intact nucleus with a prominent nucleolus, known as germinal vesicle (GV). Upon reinitiation of meiosis the nucleolus and the nuclear envelope disappear and this is characterized by a breakdown of the GV, which then is called germinal vesicle breakdown (GVB).
At day 4, by the end of the culture period, follicles were checked for resumption of meiosis. The number of follicles having oocytes with germinal vesicle (GV) or germinal vesicle breakdown (GVB) was counted using a stereo microscope or an inverted microscope with differential interference contrast equipment. The percentage of follicles with GVB per total number of follicles was calculated in the test cultures and compared to the vehicle control culture.

[2] = system: cumulus enclosed mouse oocytes; assay: Mouse oocyte assay: activation of meiosis in cumulus enclosed oocytes in Hx-medium; format: cell-based; details: CEO in Hx-medium, 22 hours culture
Description: Testing of Meiosis-Activating Substances in the Mouse Oocyte Assay
Oocytes were obtained from immature female mice (C57BI/6J×DBA/2J F1-hybrids, Bomholtgaard, Denmark) weighing 13-16 grams, that were kept under controlled lighting and temperature. The mice received an intra-peritoneal injection of 0.2 ml gonadotropins (containing 10 IU PMSG, pregnant mare serum gonadotropin, Sigma Cat. No. G-4877) and 48 hours later the animals were killed by cervical dislocation.
Collection and Culture of Oocytes
The ovaries were dissected out and the oocytes were isolated in Hx-medium (see below) under a stereo microscope by manual rupture of the follicles using a pair of 27 gauge needles. Spherical, cumulus enclosed oocytes (CEO) displaying an intact germinal vesicle (GV) were placed in α-minimum essential medium (α-MEM without ribonucleosides, Gibco BRL, Cat. No. 22561) supplemented with 3 mM hypoxanthine (Sigma Cat. No. H-9377), 8 mg/ml Human Serum Albumin (HSA, State Serum Institute, Denmark), 0,23 mM pyruvate (Sigma, Cat. No. S-8636), 2 mM glutamine (Flow Cat. No. 16-801), 100 IU/ml penicillin and 100 μg/ml streptomycin (Flow Cat No. 16-700). This medium was designated Hx-medium.
The oocytes were rinsed three times in Hx-medium and cultured in 4-well multidishes (Nunclon, Denmark) in which each well contained 0.4 ml of Hx-medium and approx. 25 oocytes. One control (i.e. approx. 25 oocytes cultured in Hx-medium with no addition of test compound) was always run simultaneously with the test cultures, which were made with different concentrations of the compounds to be tested. The cultures were performed at 37° C. and 100% humidity with 5% CO2 in air. The culture time was 22 hours.
as §1, with “than” for “then”, “(GVB). Some hours later the oocyte complete a reductional division and elicit the first so called polar body (PB).” for “(GVB).”
By the end of the culture period, the number of oocytes with germinal vesicle (GV) or germinal vesicle breakdown (GVB) and those with polar body (PB) was counted using a stereo microscope or an inverted microscope with differential interference contrast equipment. The percentage of oocytes with GVB per total number of oocytes and the percentage of oocytes with PB per total number of oocytes was calculated in the test cultures and compared to the control culture.

rat oocytes = details: micromolar concentrations; rat CEO and DO arrested by IBMX; cited from earlier work

C[C@H](CN1CCCCC1)[C@H]1CC=C2C3=C(CC[C@@]21C)[C@@]1(C)CC[C@H](O)C(C)(C)[C@@H]1CC3 [Example 1, (20S)-20-[(piperidin-1-yl)methyl]-4,4-dimethyl-5α-pregna-8,14-dien-3β-ol]
Activation [%] GVB ([1]; 1 μM): 78% | Follicles [n] GV ([1]; 1 μM): 2 n | Follicles [n] GVB ([1]; 1 μM): 7 n | Activation [%] GVB ([1]; 3 μM): 100% | Follicles [n] GV ([1]; 3 μM): 0 n | Follicles [n] GVB ([1]; 3 μM): 9 n | Activation [%] GVB ([1]; 10 μM): 100% | Follicles [n] GV ([1]; 10 μM): 0 n | Follicles [n] GVB ([1]; 10 μM): 8 n | Activation [%] GVB + PB ([2]; 0,1 μM): 39% | Oocytes [n] GV ([2]; 0,1 μM): 14 n | Oocytes [n] GVB ([2]; 0,1 μM): 7 n | Oocytes [n] PB ([2]; 0,1 μM): 2 n | Activation [%] GVB + PB ([2]; 1 μM): 75% | Oocytes [n] GV ([2]; 1 μM): 6 n | Oocytes [n] GVB ([2]; 1 μM): 12 n | Oocytes [n] PB ([2]; 1 μM): 6 n | Activation [%] GVB + PB ([2]; 10 μM): 95% | Oocytes [n] GV ([2]; 10 μM): 1 n | Oocytes [n] GVB ([2]; 10 μM): 14 n | Oocytes [n] PB ([2]; 10 μM): 7 n

CC(C)=CCC[C@@H](C)[C@H]1CC=C2C3=C(CC[C@@]21C)[C@@]1(C)CC[C@H](O)C(C)(C)[C@@H]1CC3 [FF-MAS, 4,4-dimethyl-5α-cholesta-8,14,24-trien-3β-ol, reference compound]
resumption of meiosis (rat oocytes): able to induce resumption of meiosis in a dose-dependent manner | Activation [%] GVB ([1]; 10 μM): 0% | Follicles [n] GV ([1]; 10 μM): 9 n | Follicles [n] GVB ([1]; 10 μM): 0 n | induction of maturation / activation of meiosis in a follicle culture system ([1]; follicle culture system): not able to induce maturation | Activation [%] GVB + PB ([2]; 10 μM): 46% | Oocytes [n] GV ([2]; 10 μM): 13 n | Oocytes [n] GVB ([2]; 10 μM): 6 n | Oocytes [n] PB ([2]; 10 μM): 5 n
